In patent publication US20210308211A1, “METHOD OF TREATING VIRAL INFECTIONS” (priority 2020, published 2021):
“And” between values parts separate entries of the source, which are not always exact repeats. Identical values can stand only once. Non-standard residues stand in square brackets, D forms with d. Residues, ends and D or L forms follow the SMILES beside them. pS = N[C@@H](COP(=O)(O)O)C(=O)O

What was measured:
[1] = tested on: C57BL/6 mice; assay: K/B×N serum transfer arthritis, curative protocol; format: in vivo, mouse
Description: The TCR transgenic mice expressing the KRN and the MHC class II A^g7 molecule (K/B×N mice) have developed a severe inflammatory arthritis. The administration of serum of these mice to healthy recipient mice causes inflammatory arthritis over a period of about 15 days with a peak ignition around day 7 post-injection.
Two mouse serum administrations from K/B×N were performed (day 0 and day 2). The injection of serum (100 μl/mouse) is performed by intra-peritoneal (ip) injection in mice C57BL/6 (or B6) for 8 weeks (n=10); untreated mouse (n=10).
The P140 peptide (100 μg/100 μl; iv retro-orbital) was administered as follows:
Curative treatment: Injection at day 1 and day 4, to guide the peak of inflammatory disease. Preventive treatment: Injection at day −7 and day −2. Bleeding S0 (at day 0) is followed by bloodletting conducted every six days to dispose of serum. The study ends when inflammation has returned to its basal level, to around day 20 (see FIG. 19).
During the peak of inflammation, every day the animals are evaluated, and swelling score of articulation is established. It is ranged from 0 to 4 and based on a joint observation of the animal. In practice, this score is given for each leg (4 values) and these values are added together to get a general score that ranges from 0 to 16 (FIG. 20).

[2] = tested on: Raji cells; assay: Cellular uptake of fluorescent P140 in Raji cells (flow cytometry); format: cell-based, human; conditions: fluorescent peptide in 10% trehalose compared with 5.4% mannitol
Excerpt: (§1) FIG. 8. Cellular uptake of fluorescent P140 peptide in 5.4% mannitol or 10% trehalose in MRL/lpr B cells and Raji cells as visualized by flow cytometry. B cells were from 12-14 week-old MRL/lpr mice (primary cells); Raji cells are an established cell line derived in 1963 from B-lymphocyte of a patient with Burkitt's lymphoma.
(§2) For P140 peptide activity, HSC70 binding and endocytosis appear to be important. It is believed that endocytosis must occur through the clathrin route. This implies that peptide+excipient should have a size in the range of 30 to 500 nm in diameter. For example P140+mannitol are in the 100 nm region whereas P140+trehalose are below 10 nm and therefore not effective binding to HSC70. […] B cells were from 12-14 week-old MRL/lpr mice (primary cells); Raji cells are an established cell line derived in 1963 from B-lymphocyte of a patient with Burkitt's lymphoma. […] The confocal images show the late endosomal compartment where P140 localizes before homing into lysosomes; DAPI identifies DNA.

[3] = tested on: MRL/lpr B cells; assay: Cellular uptake of fluorescent P140 in MRL/lpr B cells (flow cytometry, confocal); format: cell-based, mouse
Excerpt: as §1
FIG. 9. Confocal images of B cells of FIG. 10. All confocal images were taken in the same microscopic settings. Rab9 (red) identifies the late endosomal compartment where P140 localizes before homing into lysosomes DAPI (blue) identifies DNA.
as §2

[4] = tested on: Balb/c mice; assay: 31-day HDM-induced asthma model, BAL cell counts; format: in vivo, mouse; conditions: for B cells / DCs / Eosinophils / Macrophages / Neutrophils / T cells / Total cells: BAL, per mouse
Description: The aim of this study was to evaluate the effect of the P140 phosphopeptide administered systemically (intravenously) in a 31-day model of HDM-induced asthma in mice. The P140 phosphopeptide was solubilized in sterile water (Braun) and 10x concentrate sterile saline was added to adjust osmolarity to 300 mosm. Osmolarity was controlled with a micro osmometer (Löser, type 15) and validated (303 mosm). The P140 phosphopeptide was used in vivo at the dose of 4 mg/kg by intravenous (i.v.) routes. Control animals received equivalent volumes (2 ml/kg) of saline (Table 8).
Nine-week-old male Balb/c mice were sensitized by intranasal (i.n.) administration of HDM extract (Stallergenes): 1 μg in 25 μl saline on days 0, 1, 2, 3, 4, and 10 μg on days 14 and 21. Mice were challenged by i.n. administration of HDM (1 μg) and/or saline on days 28, 29 and 30. Mice were treated by i.v. injection (2 ml/kg) of P140 or solvent on day 25 (see FIG. 12).
BAL was performed after airway responsiveness measurement twenty-four hours after HDM challenge as described (Daubeuf et al. 2012). Mice were anaesthetized IP (Ketamine 150 mg/kg—Xylasine 10 mg/kg). Blood was collected from the heart, centrifuged at 10,000 g for 2 min and serum stored at −20° C.
After semi-excision of the trachea, a plastic cannula was inserted, and airspace washed with 0.5 ml of 0.9% NaCl injected with a 1 ml syringe. This procedure was performed 10 times. The initial concentrated supernatant of the 2 first lavages (volume=2×0.5 ml administered, approximately 0.5 ml recovered) was collected for cytokine measurements. The remaining BAL fluid was centrifuged (300 g for 5 min, 4° C.), and cell pellets pooled. The cell pellet was suspended in 500 μl of 0.9% NaCl and used for total cell counts evaluated on a Muse® Cell Analyser (Millipore). Differential cell counts were assessed by flow cytometry (LSRII® cytometer, BD Bioscience). BAL cells were added with FCblock (0.5 μl, 553142, BD Bioscience) in a black microplate, incubated for 20 min at room temperature. Then, marker antibodies were added: CD11c-FITC (557400, BD bioscience), Gr-1-PeeFluor610 (61-5931-82, eBioscience), F4/80-PE (12-4801-82, eBioscience), CD11b-APC-Cy7 (557657, BD bioscience), CD45-AlexaFluor700 (103128, BioLegend), CD3-BV605 (564009, BD bioscience), CD19-PE-Cy7 (552854, BD bioscience). Antibodies were incubated with BAL cells for 30 min at room temperature before DAPI (5 μl, BD bioscience) addition, and flow cytometry was performed immediately.
All mice were sensitized to HDM on days 0, 1, 2, 3, 4, 14, 21, and challenged either with saline ([…]) or HDM (challenge with allergen). Results are presented as means±SEM. Differences between groups were tested for statistical significance using Student's t test for inflammatory cells and a two-way ANOVA followed by Bonferroni post-test for airway responses.

[5] = HDM + P140 (i.v. 4 mg/kg day 25, HDM-challenged)
[6] = P140 i.v. 4 mg/kg day 25, HDM-sensitized, saline-challenged (chronic asthma)
[7] = chronic asthma (saline challenge), 4 mg/kg i.v. day 25, BAL, non-significant
[8] = chronic asthma (saline challenge), 4 mg/kg i.v. day 25, BAL, p<0.05

CC[C@H](C)[C@H](NC(=O)[C@H](Cc1ccccc1)NC(=O)[C@H](C)NC(=O)[C@H](Cc1ccc(O)cc1)NC(=O)CNC(=O)[C@H](CCCNC(=N)N)NC(=O)[C@@H]1CCCN1C(=O)[C@H](CCCCN)NC(=O)CNC(=O)[C@H](COP(=O)(O)O)NC(=O)[C@H](CCCNC(=N)N)NC(=O)[C@H](CCCCN)NC(=O)[C@H](CO)NC(=O)[C@H](Cc1ccc(O)cc1)NC(=O)[C@@H](NC(=O)[C@H](CCSC)NC(=O)[C@H](Cc1c[nH]cn1)NC(=O)[C@@H](NC(=O)[C@@H](N)CCCNC(=N)N)[C@@H](C)CC)C(C)C)C(=O)N[C@@H](CCC(=O)O)C(=O)N[C@@H](Cc1ccc(O)cc1)C(=O)O [Compound P140] (H-RIHMVYSKR[pS]GKPRGYAFIEY-OH; N-terminus and C-terminus assumed)
Weight loss ([1]; curative protocol (injection day 1 and day 4), from day 2, NaCl 10%): 15%
Weight gain ([1]; curative protocol, between day 5 and the end of the study, controls 5%): 20%
Inflammation score, maximum ([1]; curative protocol, per rear leg, same for controls): ~1.5
Cellular uptake (flow cytometry) [2]: Much less cellular uptake
Cellular uptake (flow cytometry) ([3]; fluorescent peptide in 10% trehalose compared with 5.4% mannitol, MRL/lpr B cells): Much less cellular uptake
Entry into B cells (confocal microscopy) ([3]; peptide in trehalose compared with mannitol): enters B cells much less
B cells [4, 5]: 59092 and 102246 and 42085 and 25443 and 116814 and 115000 and 53947 and 170980
DCs [4, 5]: 1034 and 2238 and 1793 and 242 and 586 and 1350 and 733 and 1928
Eosinophils [4, 5]: 955824 and 1404942 and 636065 and 342046 and 1283190 and 1036803 and 538210 and 1010686
Macrophages [4, 5]: 58705 and 118771 and 314326 and 126002 and 34364 and 38709 and 29121 and 73491
Neutrophils [4, 5]: 606700 and 510027 and 500004 and 147616 and 371317 and 487119 and 284503 and 24426
T cells [4, 5]: 400329 and 735865 and 383074 and 243813 and 469834 and 502985 and 334784 and 1056303
Total cells [4, 5]: 2140000 and 2992000 and 2190000 and 1010000 and 2310000 and 2220000 and 1270000 and 2410000
B cells [4, 6]: 2297 and 44688 and 22879 and 11101 and 7660
DCs [4, 6]: 0 and 484 and 461 and 319 and 160
Eosinophils [4, 6]: 124514 and 450346 and 448074 and 205568 and 239527
Macrophages [4, 6]: 130734 and 267685 and 360987 and 177815 and 73725
Neutrophils [4, 6]: 2584 and 35734 and 23986 and 34836 and 2394
T cells [4, 6]: 57711 and 323523 and 294011 and 208439 and 86810
Total cells [4, 6]: 448000 and 1390000 and 1510000 and 815000 and 484000
Inflammatory cell recruitment in BAL (in words) ([4]; HDM-challenged mice, in comparison to the solvent group): no effect
Number of B cells, change vs solvent group [4, 7]: −40%
Number of eosinophils, change vs solvent group [4, 7]: −25%
Number of macrophages, increase vs solvent group [4, 8]: 4.5 fold
Number of neutrophils, change vs solvent group [4, 8]: −71%
